Patent US20210220374A1, “METHODS OF TREATING TE[…]” (Clarus Therapeutics, Inc., priority 2013, published 2021)

How the values were obtained:
[1] = Example 3 four-week study of Formulation B (LOT-BB); assay type: in vivo, hypogonadal men
Description: The study was designed as an open-label, repeat dose, pharmacokinetic study.
For each subject, the “Day 28” serial PK sampling day was scheduled for Day 32 of the study. […] Doses were administered as capsules, with subjects instructed to take doses 30 minutes after initiation of meals (breakfast and dinner).

[2] = Contingency table classification of C(t) acceptance range as surrogate for Cavg; design: species or system hypogonadal men; settings: for Percent of Subjects: C(t) in range / Percent of Subjects: C(t) too high / Percent of Subjects: C(t) too low / Percent of Subjects: Cavg in range & C(t) in range / Percent of Subjects: Cavg in range & C(t) too high / Percent of Subjects: Cavg in range & C(t) too low / Percent of Subjects: Cavg too high & C(t) too high / Percent of Subjects: Cavg too low & C(t) in range / Percent of Subjects: Cavg too low & C(t) too low / Percent of Subjects: Cavg too high & C(t) in range: Cavg 300-1000 ng/dL
From the text: For the contingency table approach, the number and percentage of subjects that fell into each of the following seven categories were enumerated, for each of the candidate time points, and for each candidate target range for Cavg, and for each candidate acceptance range for C(t). • 1. Subjects with Cavg within range and with C(t) within range • 2. Subjects with Cavg below range and with C(t) below range • 3. Subjects with Cavg above range and with C(t) above range • 4. Subjects with Cavg within range but with C(t) below range • 5. Subjects with Cavg within range but with C(t) above range • 6. Subjects with Cavg below range, but with C(t) within range • 7. Subjects with Cavg above range, but with C(t) within range
If one defines a value as being “within range” as positive, and being “outside of range” as negative, then Group 1 is subjects that are “true positives”, Groups 2 and 3 are “true negatives”, groups 4 and 5 are “false negatives”, and groups 6 and 7 are “false positives”. Groups, 1, 2 and 3 represent successful predictions because C(t) is an appropriate surrogate for Cavg; Groups 4, 5, 6 and 7 are prediction failures because C(t) is an inaccurate surrogate for Cavg.
Correlations and contingency table calculations were performed using built-in functions in the Excel module of Microsoft Office 2003 (Redmond, Wash.). Graphs were produced using the built-in charting capabilities of Excel.

[3] = C(1.5), C(t) acceptance 130-1110

SMILES: CCCCCCCCCCC(=O)O[C@H]1CC[C@H]2[C@@H]3CCC4=CC(=O)CC[C@]4(C)[C@H]3CC[C@]12C [TU, testosterone undecanoate]
- Time to T steady-state ([1]; 200 mg T BID as TU): 5 to 7 days
- Subjects with Cmax greater than 1500 ng/dL ([1]; 200 mg T BID as TU, 28 days): 13.3%
- Subjects with serum T Cavg within the normal range ([1]; 200 mg T BID as TU, 28 days, no dose adjustment): 86.7%
- Endogenous serum T baseline concentration, mean ([1]; after 28 days of treatment): 108 ng/dL
- Time for DHT concentrations to return to pretreatment levels ([1]; after discontinuing treatment): ≤ 36 h
- Time for E2 concentrations to return to pretreatment levels ([1]; after discontinuing treatment): ≤ 36 h
- Continued treatment required for maximal suppression of endogenous T production ([1]; in vivo): 5 to 7 days
- E2 mean Cavg ([1]; steady state): 22.0 pg/mL
- E2 mean Cmin ([1]; steady state): 15.5 pg/mL
- Percent of Subjects: C(t) in range ([2]; C(0), C(t) acceptance 80-1000): 87.8%
- Percent of Subjects: C(t) too high ([2]; C(0), C(t) acceptance 80-1000): C(t) too high 4.9%
- Percent of Subjects: C(t) too low ([2]; C(0), C(t) acceptance 80-1000): 7.3%
- Percent of Subjects: Cavg in range & C(t) in range ([2]; C(0), C(t) acceptance 80-1000): 75.6%
- Percent of Subjects: Cavg in range & C(t) too high ([2]; C(0), C(t) acceptance 80-1000): 2.4%
- Percent of Subjects: Cavg in range & C(t) too low ([2]; C(0), C(t) acceptance 80-1000): 2.4%
- Percent of Subjects: Cavg too high & C(t) too high ([2]; C(0), C(t) acceptance 80-1000): 2.4%
- Percent of Subjects: Cavg too low & C(t) in range ([2]; C(0), C(t) acceptance 80-1000): 7.3%
- Percent of Subjects: C(t) in range ([2]; C(1), C(t) acceptance 130-1000): 85.4%
- Percent of Subjects: C(t) too high ([2]; C(1), C(t) acceptance 130-1000): 2.4%
- Percent of Subjects: C(t) too low ([2]; C(1), C(t) acceptance 130-1000): 12.2%
- Percent of Subjects: Cavg in range & C(t) in range ([2]; C(1), C(t) acceptance 130-1000): 78.0%
- Percent of Subjects: Cavg in range & C(t) too high ([2]; C(1), C(t) acceptance 130-1000): 0.0%
- Percent of Subjects: Cavg in range & C(t) too low ([2]; C(1), C(t) acceptance 130-1000): 2.4%
- Percent of Subjects: Cavg too high & C(t) too high ([2]; C(1), C(t) acceptance 130-1000): 2.4%
- Percent of Subjects: Cavg too low & C(t) in range ([2]; C(1), C(t) acceptance 130-1000): 2.4%
- Percent of Subjects: Cavg too low & C(t) too low ([2]; C(1), C(t) acceptance 130-1000): 9.8%
- Percent of Subjects: C(t) in range [2, 3]: 90.2%
- Percent of Subjects: C(t) too high [2, 3]: 0.0%
- Percent of Subjects: C(t) too low [2, 3]: 9.8%
- Percent of Subjects: Cavg in range & C(t) in range [2, 3]: 80.5%
- Percent of Subjects: Cavg in range & C(t) too high [2, 3]: 0.0%
- Percent of Subjects: Cavg in range & C(t) too low [2, 3]: 0.0%
- Percent of Subjects: Cavg too high & C(t) in range [2, 3]: 7.3%
- Percent of Subjects: Cavg too high & C(t) too high [2, 3]: 0.0%
- Percent of Subjects: Cavg too low & C(t) in range [2, 3]: 2.4%
- Percent of Subjects: Cavg too low & C(t) too low [2, 3]: 9.8%
- Percent of Subjects: C(t) in range ([2]; C(2), C(t) acceptance 150-1200): 90.2%
- Percent of Subjects: C(t) too high ([2]; C(2), C(t) acceptance 150-1200): 0.0%
- Percent of Subjects: C(t) too low ([2]; C(2), C(t) acceptance 150-1200): 9.8%
- Percent of Subjects: Cavg in range & C(t) in range ([2]; C(2), C(t) acceptance 150-1200): 80.5%
- Percent of Subjects: Cavg in range & C(t) too high ([2]; C(2), C(t) acceptance 150-1200): 0.0%
- Percent of Subjects: Cavg in range & C(t) too low ([2]; C(2), C(t) acceptance 150-1200): 0.0%
- Percent of Subjects: Cavg too high & C(t) in range ([2]; C(2), C(t) acceptance 150-1200): 7.3%
- Percent of Subjects: Cavg too high & C(t) too high ([2]; C(2), C(t) acceptance 150-1200): 0.0%
- Percent of Subjects: Cavg too low & C(t) in range ([2]; C(2), C(t) acceptance 150-1200): 2.4%
- Percent of Subjects: Cavg too low & C(t) too low ([2]; C(2), C(t) acceptance 150-1200): 9.8%
- Percent of subjects: Cavg in Range F & C(t) in Range F (total of too high and too low) ([2]; C(3), C(t) acceptance 190-1450, Cavg 300-1000): 7.3%
- Percent of Subjects: C(t) in range ([2]; C(3), C(t) acceptance 190-1500): 90.2%
- Percent of Subjects: C(t) too high ([2]; C(3), C(t) acceptance 190-1500): 0.0%
- Percent of Subjects: C(t) too low ([2]; C(3), C(t) acceptance 190-1500): 9.8%
- Percent of Subjects: Cavg in range & C(t) in range ([2]; C(3), C(t) acceptance 190-1500): 78.0%
- Percent of Subjects: Cavg in range & C(t) too high ([2]; C(3), C(t) acceptance 190-1500): 0.0%
- Percent of Subjects: Cavg in range & C(t) too low ([2]; C(3), C(t) acceptance 190-1500): 2.4%
- Percent of Subjects: Cavg too high & C(t) in range ([2]; C(3), C(t) acceptance 190-1500): 7.3%
- Percent of Subjects: Cavg too high & C(t) too high ([2]; C(3), C(t) acceptance 190-1500): 0.0%
- Percent of Subjects: Cavg too low & C(t) in range ([2]; C(3), C(t) acceptance 190-1500): 4.9%
- Percent of Subjects: Cavg too low & C(t) too low ([2]; C(3), C(t) acceptance 190-1500): 7.3%
- Percent of Subjects: C(t) in range ([2]; C(4), C(t) acceptance 250-1700): 82.9%
- Percent of Subjects: C(t) too high ([2]; C(4), C(t) acceptance 250-1700): 2.4%
- Percent of Subjects: C(t) too low ([2]; C(4), C(t) acceptance 250-1700): 14.6%
- Percent of Subjects: Cavg in range & C(t) in range ([2]; C(4), C(t) acceptance 250-1700): 75.6%
- Percent of Subjects: Cavg in range & C(t) too high ([2]; C(4), C(t) acceptance 250-1700): 0.0%
- Percent of Subjects: Cavg in range & C(t) too low ([2]; C(4), C(t) acceptance 250-1700): 4.9%
